Results as given in US12729377B2, “RNAi agents and compositions for inhibiting expression of angiopoietin-like 3 (ANGPTL3), and methods of use” (Arrowhead Pharmaceuticals, Inc., priority 2017, dated 2026).
In the oligonucleotide strings, read from the 5' end, every base follows the letter of its sugar. An asterisk marks phosphorothioate; unmarked linkages are phosphodiester. Other units and linkages are bracketed, terminal groups are in braces. A string of capitals states the bases alone. {NAG37} = tridentate N-acetyl-galactosamine targeting ligand, structure (NAG37)s; [invAb] = inverted abasic unit; m = 2'-O-methyl; f = 2'-fluoro

Tests used:
ANGPTL3 protein = test: Example 10: serum ANGPTL3 protein by ELISA in mice; format: in vivo; settings: 0.5 mg/kg single SC injection day 1, female C57bl/6 mice, n=3, ratio to D5W control
Experimental: (§1) To assess the in vivo activity of further ANGPTL3 RNAi agents that are designed to target position 304 on the ANGPTL3 gene, six- to eight-week-old female C57bl/6 mice were used. Pre-dose serum samples were taken at day −1 after a four hour fast. At day 1, each mouse was given a single subcutaneous administration of 200 μl containing 0.5 mg/kg (mpk) of an ANGPTL3 RNAi agent in D5W (dextrose in 5% water), or control (D5W) with no RNAi agent, according to the dosing groups recited in Table 47.
(§2) Each of the RNAi agents included a modified sequence and an N-acetyl-galactosamine-containing targeting ligand conjugated to the 5′ terminal end of the sense strand. (See Tables 3, 4, and 5 for modified sequences and targeting ligand structures). As noted above, each of the ANGPTL3 RNAi agents dosed in this study included nucleotide sequences designed to target the ANGPTL3 gene at position 304. The injections were performed between the skin and muscle (i.e. subcutaneous injections) into the loose skin over the neck and shoulder area. Three (3) mice in each group were tested (n=3). Serum was collected on days 8, 15, 22, 29, and for some groups on day 36 (i.e., Groups 1, 2, and 9-13 only). Mice were fasted for four hours prior to each collection. ANGPTL3 protein levels in serum were measured by ELISA assay (R&D Systems), according to the manufacturer's recommendations. Triglycerides, total cholesterol, high-density lipoprotein (HDL), and low-density lipoprotein (LDL) in serum were measured on a Cobas® Integra 400 (Roche Diagnostics), according to the manufacturer's recommendations.
(§3) The ANGPTL3 protein levels, triglyceride levels, total cholesterol levels, HDL levels, and LDL levels for each animal were normalized. For normalization, the level of ANGPTL3 protein, triglyceride, HDL, and total cholesterol, respectively, for each animal at a time point, was divided by the pre-treatment level of expression in that animal (in this case at day −1) to determine the ratio of expression “normalized to pre-treatment.” Expression at a specific time point was then normalized to the D5W control group by dividing the “normalized to pre-treatment” ratio for an individual animal by the mean “normalized to pretreatment” ratio of all mice in the D5W control group.

ANGPTL3 gene [1] = test: Example 10: serum LDL in mice; format: in vivo, C57bl/6 mice; settings: 0.5 mg/kg sc
Experimental: as §1, §2, §3

ANGPTL3 gene [2] = test: Example 11: dose response, serum total cholesterol in mice; format: in vivo, C57bl/6 mice
Experimental: as §1, with “dose response” for “in vivo activity”, “of” for “of further”, “agent AD05488,” for “agents that are designed to target position 304 on the ANGPTL3 gene,”, “the respective” for “0.5”, “dose” for “(mpk)”, “53:” for “47.”
(§4) The RNAi agent tested (AD05488) included a modified sequence and an N-acetyl-galactosamine-containing targeting ligand conjugated to the 5′ terminal end of the sense strand. (See Tables 3, 4, and 5 for modified sequences and targeting ligand structures). The injections were performed between the skin and muscle (i.e. subcutaneous injections) into the loose skin over the neck and shoulder area. Four (4) mice in each group were tested (n=4). Serum was collected on days 8, 15, 22, and 29. Mice were fasted for four hours prior to each collection. ANGPTL3 protein levels in serum were measured by ELISA assay (R&D Systems), according to the manufacturer's recommendations. Triglycerides, total cholesterol, high-density lipoprotein (HDL), and low-density lipoprotein (LDL) in serum were measured on a Cobas® Integra 400 (Roche Diagnostics), according to the manufacturer's recommendations.
as §3

ANGPTL3 gene [3] = test: Example 11: dose response, serum HDL in mice; format: in vivo, C57bl/6 mice
Experimental: as §1, with “dose response” for “in vivo activity”, “of” for “of further”, “agent AD05488,” for “agents that are designed to target position 304 on the ANGPTL3 gene,”, “the respective” for “0.5”, “dose” for “(mpk)”, “53:” for “47.”
as §4, §3

[4] = 0.05 mg/kg single sc day 1, Day 8
[5] = 0.05 mg/kg single sc day 1, Day 15
[6] = 0.05 mg/kg single sc day 1, Day 22
[7] = 0.05 mg/kg single sc day 1, Day 29
[8] = 0.1 mg/kg single sc day 1, Day 8
[9] = 0.1 mg/kg single sc day 1, Day 15
[10] = 0.1 mg/kg single sc day 1, Day 22
[11] = 0.1 mg/kg single sc day 1, Day 29
[12] = 0.5 mg/kg single sc day 1, Day 8
[13] = 0.5 mg/kg single sc day 1, Day 15
[14] = 0.5 mg/kg single sc day 1, Day 22
[15] = 0.5 mg/kg single sc day 1, Day 29
[16] = 1.0 mg/kg single sc day 1, Day 8
[17] = 1.0 mg/kg single sc day 1, Day 15
[18] = 1.0 mg/kg single sc day 1, Day 22
[19] = 1.0 mg/kg single sc day 1, Day 29
[20] = 2.5 mg/kg single sc day 1, Day 8
[21] = 2.5 mg/kg single sc day 1, Day 15
[22] = 2.5 mg/kg single sc day 1, Day 22
[23] = 2.5 mg/kg single sc day 1, Day 29
[24] = 5.0 mg/kg single sc day 1, Day 8
[25] = 5.0 mg/kg single sc day 1, Day 15
[26] = 5.0 mg/kg single sc day 1, Day 22
[27] = 5.0 mg/kg single sc day 1, Day 29

AD05488: RNAi agent duplex: antisense AM07235-AS, sense AM07234-SS (antisense mU*fA*mC*fUmGfAmUfCmAfAmAfUmAfUmGfUmUfGmAfG*mC; sense {NAG37}*[invAb]*mGmCmUmCmAmAmCmAfUfAfUmUmUmGmAmUmCmAmGmUmA*[invAb])
Average ANGPTL3 Protein Normalized to Pre-Treatment and Control (ANGPTL3 protein; Day 8): 0.179 | Average ANGPTL3 Protein Normalized to Pre-Treatment and Control (ANGPTL3 protein; Day 15): 0.197 | Average ANGPTL3 Protein Normalized to Pre-Treatment and Control (ANGPTL3 protein; Day 22): 0.196 | Average ANGPTL3 Protein Normalized to Pre-Treatment and Control (ANGPTL3 protein; Day 29): 0.258 | Average ANGPTL3 Protein Normalized to Pre-Treatment and Control (ANGPTL3 protein; Day 36): 0.297 | Avg LDL Normalized to Pre-Treatment and Control (ANGPTL3 gene [1]; Day 8): 0.836 | Avg LDL Normalized to Pre-Treatment and Control (ANGPTL3 gene [1]; Day 15): 0.969 | Avg LDL Normalized to Pre-Treatment and Control (ANGPTL3 gene [1]; Day 22): 0.901 | Avg LDL Normalized to Pre-Treatment and Control (ANGPTL3 gene [1]; Day 29): 0.762 | Avg LDL Normalized to Pre-Treatment and Control (ANGPTL3 gene [1]; Day 36): 0.863 | Avg Total Chol Normalized to Pre-Treatment and Control (ANGPTL3 gene [2]; [4]): 0.856 | Avg Total Chol Normalized to Pre-Treatment and Control (ANGPTL3 gene [2]; [5]): 1.090 | Avg Total Chol Normalized to Pre-Treatment and Control (ANGPTL3 gene [2]; [6]): 0.946 | Avg Total Chol Normalized to Pre-Treatment and Control (ANGPTL3 gene [2]; [7]): 0.915 | Avg Total Chol Normalized to Pre-Treatment and Control (ANGPTL3 gene [2]; [8]): 0.820 | Avg Total Chol Normalized to Pre-Treatment and Control (ANGPTL3 gene [2]; [9]): 0.974 | Avg Total Chol Normalized to Pre-Treatment and Control (ANGPTL3 gene [2]; [10]): 0.785 | Avg Total Chol Normalized to Pre-Treatment and Control (ANGPTL3 gene [2]; [11]): 0.945 | Avg Total Chol Normalized to Pre-Treatment and Control (ANGPTL3 gene [2]; [12]): 0.740 | Avg Total Chol Normalized to Pre-Treatment and Control (ANGPTL3 gene [2]; [13]): 0.918 | Avg Total Chol Normalized to Pre-Treatment and Control (ANGPTL3 gene [2]; [14]): 0.897 | Avg Total Chol Normalized to Pre-Treatment and Control (ANGPTL3 gene [2]; [15]): 0.883 | Avg Total Chol Normalized to Pre-Treatment and Control (ANGPTL3 gene [2]; [16]): 0.610 | Avg Total Chol Normalized to Pre-Treatment and Control (ANGPTL3 gene [2]; [17]): 0.816 | Avg Total Chol Normalized to Pre-Treatment and Control (ANGPTL3 gene [2]; [18]): 0.857 | Avg Total Chol Normalized to Pre-Treatment and Control (ANGPTL3 gene [2]; [19]): 0.920 | Avg Total Chol Normalized to Pre-Treatment and Control (ANGPTL3 gene [2]; [20]): 0.647 | Avg Total Chol Normalized to Pre-Treatment and Control (ANGPTL3 gene [2]; [21]): 0.832 | Avg Total Chol Normalized to Pre-Treatment and Control (ANGPTL3 gene [2]; [22]): 0.772 | Avg Total Chol Normalized to Pre-Treatment and Control (ANGPTL3 gene [2]; [23]): 0.694 | Avg Total Chol Normalized to Pre-Treatment and Control (ANGPTL3 gene [2]; [24]): 0.583 | Avg Total Chol Normalized to Pre-Treatment and Control (ANGPTL3 gene [2]; [25]): 0.787 | Avg Total Chol Normalized to Pre-Treatment and Control (ANGPTL3 gene [2]; [26]): 0.790 | Avg Total Chol Normalized to Pre-Treatment and Control (ANGPTL3 gene [2]; [27]): 0.783 | Avg HDL Normalized to Pre-Treatment and Control (ANGPTL3 gene [3]; [4]): 0.851 | Avg HDL Normalized to Pre-Treatment and Control (ANGPTL3 gene [3]; [5]): 1.052 | Avg HDL Normalized to Pre-Treatment and Control (ANGPTL3 gene [3]; [6]): 0.982 | Avg HDL Normalized to Pre-Treatment and Control (ANGPTL3 gene [3]; [7]): 0.894 | Avg HDL Normalized to Pre-Treatment and Control (ANGPTL3 gene [3]; [8]): 0.807 | Avg HDL Normalized to Pre-Treatment and Control (ANGPTL3 gene [3]; [9]): 0.950 | Avg HDL Normalized to Pre-Treatment and Control (ANGPTL3 gene [3]; [10]): 0.806 | Avg HDL Normalized to Pre-Treatment and Control (ANGPTL3 gene [3]; [11]): 0.910 | Avg HDL Normalized to Pre-Treatment and Control (ANGPTL3 gene [3]; [12]): 0.727 | Avg HDL Normalized to Pre-Treatment and Control (ANGPTL3 gene [3]; [13]): 0.876 | Avg HDL Normalized to Pre-Treatment and Control (ANGPTL3 gene [3]; [14]): 0.906 | Avg HDL Normalized to Pre-Treatment and Control (ANGPTL3 gene [3]; [15]): 0.897 | Avg HDL Normalized to Pre-Treatment and Control (ANGPTL3 gene [3]; [16]): 0.575 | Avg HDL Normalized to Pre-Treatment and Control (ANGPTL3 gene [3]; [17]): 0.785 | Avg HDL Normalized to Pre-Treatment and Control (ANGPTL3 gene [3]; [18]): 0.839 | Avg HDL Normalized to Pre-Treatment and Control (ANGPTL3 gene [3]; [19]): 0.888 | Avg HDL Normalized to Pre-Treatment and Control (ANGPTL3 gene [3]; [20]): 0.618 | Avg HDL Normalized to Pre-Treatment and Control (ANGPTL3 gene [3]; [21]): 0.787 | Avg HDL Normalized to Pre-Treatment and Control (ANGPTL3 gene [3]; [22]): 0.782 | Avg HDL Normalized to Pre-Treatment and Control (ANGPTL3 gene [3]; [23]): 0.701 | Avg HDL Normalized to Pre-Treatment and Control (ANGPTL3 gene [3]; [24]): 0.534 | Avg HDL Normalized to Pre-Treatment and Control (ANGPTL3 gene [3]; [25]): 0.717 | Avg HDL Normalized to Pre-Treatment and Control (ANGPTL3 gene [3]; [26]): 0.760 | Avg HDL Normalized to Pre-Treatment and Control (ANGPTL3 gene [3]; [27]): 0.759
